In US10253081B2, “Glucagon analogues” (Zealand Pharma A/S, priority 2012, dated 2019):
*1 amine or outer side, *2 acyl side, *3 side chain or, on linkers, in order; H or OH if unused. Where a SMILES comes first, the peptide text is derived from it. Side-chain parts run from the residue outwards. [ ]: non-standard residue; d: D form. The star is where a group is joined. γGlu = O=C(O)[C@H](CCC(=O)[*:2])N[*:1]; Palmitoyl = CCCCCCCCCCCCCCCC(=O)*; Aib = CC(C)(N)C(=O)O

What was measured:
Type in all cases: cell-based
[1] = biological target: T1, human glucagon receptor (Glucagon-R) (Homo sapiens, UniProt P47871); assay: Glucagon receptor efficacy assay (cAMP AlphaScreen, CHO cells); conditions: Table 1B; same protocol, different laboratory; read-out: EC50 hGCGR CHO-K1
T1 construct: expressed in transfected cells
From the text: (§1) The cDNA encoding either the human glucagon receptor (Glucagon-R) (primary accession number P47871) or the human glucagon-like peptide 1 receptor (GLP-1R) (primary accession number P43220) were synthesized and cloned into a mammalian expression vector containing a Zeocin resistance marker.
(§2) The mammalian expression vectors encoding the Glucagon-R or the GLP-1-R were transfected into Chinese hamster ovary (CHO) cells by the Attractene method method. Stably expressing clones were obtained by Zeocin selection (250 μg/mL) upon limited dilution of cells resistant to the selection pressure. Glucagon-R and GLP-1-R cell clones expressing were picked, propagated and tested in the Glucagon-R and GLP-1-R efficacy assays as described below. One Glucagon-R expressing clone and one GLP-1-R expressing clone were chosen for compound profiling.
(§3) CHO cells expressing the human Glucagon-R, or human GLP-1-R were seeded 24 hours prior to the assay at 30,000 cells per well in 96-well microtiter plates in culture in 100 μl growth medium. On the day of analysis, growth medium was removed and the cells were washed once with 200 μl of assay buffer (Krebs-Ringer-buffer—KRBH). The buffer was removed and the cells were incubated for 15 min at room temperature in 10 μl KRBH (KRBH+10 mM HEPES, 5 mM NaHCO3, 0.1% (V/V) BSA) with 0.1 mM IBMX in deionized water containing increasing concentrations of test peptides. The reaction was stopped by the addition of lysis buffer (0.1% w/v BSA, 5 mM HEPES, 0.3% v/v Tween-20). After cell lysis for 10 min at room temperature, lysates were transferred to 384-well plates and 10 μl of acceptor/donorbead mixture as contained in the AlphaScreen™ cAMP Functional Assay Kit was added. After one hour of incubation at room temperature in the dark, the cAMP content was determined applying the AlphaScreen™ cAMP Functional Assay Kit from Perkin-Elmer according to manufacturer instructions. EC50 and relative efficacies compared to reference compounds (glucagon and GLP-1) were calculated applying computer aided curve fitting. The GLP-1/glucagon ratio is calculated as defined earlier.

[2] = biological target: T2, human glucagon-like peptide 1 receptor (GLP-1R) (Homo sapiens, UniProt P43220); assay: GLP-1 receptor efficacy assay (cAMP AlphaScreen, CHO cells); conditions: Table 1B; for Ratio GLP-1/Glucagon: EC50 [GLP-1R]/EC50 [Glucagon-R]; for EC50: same protocol, different laboratory, read-out: EC50 hGLP-1R CHO-K1
T2 construct: expressed in transfected cells
From the text: as §1, §2, §3

[3] = biological target: T3, endogenous GLP-1 receptors (Mus musculus, UniProt O35659); assay: Agonistic activity on endogenous GLP-1 receptor (cAMP, murine insulinoma cell line); conditions: intracellular cAMP, 15 minutes at 26° C.; read-out: EC50 GLP-1R (murine insulinoma cells)
T3 construct: Agonistic activity of the test compounds on endogenous GLP-1 receptors; endogenous in cells
T3 sequence (O35659 22-463): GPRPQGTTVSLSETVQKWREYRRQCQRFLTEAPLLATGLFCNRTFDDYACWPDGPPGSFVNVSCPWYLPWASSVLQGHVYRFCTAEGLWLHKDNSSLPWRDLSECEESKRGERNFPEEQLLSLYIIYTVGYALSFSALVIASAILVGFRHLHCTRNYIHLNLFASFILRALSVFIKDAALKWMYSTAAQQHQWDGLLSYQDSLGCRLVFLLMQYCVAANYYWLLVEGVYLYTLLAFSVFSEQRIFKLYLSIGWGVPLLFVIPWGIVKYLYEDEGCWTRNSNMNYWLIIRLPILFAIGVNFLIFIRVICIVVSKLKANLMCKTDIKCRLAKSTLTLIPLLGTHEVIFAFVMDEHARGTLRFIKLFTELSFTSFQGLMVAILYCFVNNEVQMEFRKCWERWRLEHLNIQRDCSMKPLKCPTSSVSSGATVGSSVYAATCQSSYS
Protocol: Agonistic activity of the test compounds on endogenous GLP-1 receptors was determined using a murine insulinoma cell line. Intracellular cAMP was used an indicator of receptor activation.
Cells were cultured for 24 h at a density of 10,000 cells/well in a 384-well plate. Medium was removed and 10 μL KRBH buffer (NaCl 130 mM, KCl 3.6 mM, NaH2PO4 0.5 mM, MgSO4 0.5 mM, CaCl2) 1.5 mM) containing test compound or GLP-1 (at increasing concentrations from […] to 100 nM) or solvent control (0.1% (v/v) DMSO) was added to the wells for 15 minutes at a temperature of 26° C.
The cellular cAMP content is measured using the AlphaScreen cAMP Functional Assay Kit (Perkin Elmer). Measurement was performed using the Envision (PerkinElmer) according to manufacturer's recommendations.
All measurements were performed in quadruplicate.
Results were converted into cAMP concentrations using a cAMP standard curve prepared in KRBH buffer containing 0.1% (v/v) DMSO. The resulting cAMP curves were plotted as absolute cAMP concentrations (nM) over log (test compound concentration) and analyzed using the curve fitting program XLfit.
Parameters calculated to describe the both the potency as well as the agonistic activity of each test compound on the endogenous GLP-1 receptors were:
pEC50 (negative logarithmic value of EC50, a concentration resulting in a half-maximal elevation of cAMP levels, reflecting the potency of the test compound);
Percent control (% CTL)(% cAMP elevation for each test compound concentration normalized based on the GLP-1-induced maximum cAMP response (100% CTL)).

[4] = biological target: T4, endogenous glucagon receptor (Rattus norvegicus, UniProt P30082); assay: Agonistic activity on endogenous glucagon receptor (glycogen synthesis rate in primary rat hepatocytes); conditions: inhibition of glycogen synthesis rate, 3 hours, read-out: EC50 GLP-1R Rat hepat.
T4 construct: Agonistic activity of the test compounds on endogenous glucagon receptor; endogenous in cells; host or cells: primary rat hepatocytes
Protocol: Agonistic activity of the test compounds on endogenous glucagon receptor was determined by measuring their effect on rate of glycogen synthesis in primary rat hepatocytes. Upon activation of the glucagon receptor, an inhibition of the glycogen synthesis rate is expected. Rate of glycogen synthesis was determined by counting the amount of radioactively labeled glucose incorporated into the cellular glycogen stores in a defined period of time.
Primary rat hepatocytes were cultured at a density of 40,000 cells/well in a 24-well plate for 24 hours at 37° C. and 5% CO2.
Medium was discarded and the cells washed with PBS. 180 μL of KRBH-based buffer containing 0.1% BSA and glucose at a concentration of 22.5 mM was then added to the wells, followed by test compound and 40 μCi/ml D-[U14C] glucose (20 μL each). Incubation was continued for 3 hours.
At the end of the incubation period, the incubation buffer was aspirated and cells washed once with ice-cold PBS before lysis by incubation for 30 min at room temperature with 100 μL 1 mol/l NaOH.
Cell lysates were transferred to 96-well filter plates and glycogen precipitated by incubating the filter-plates for 120 min at 4° C. followed by washing the filter plates 4 times with ice-cold ethanol (70%). The resulting precipitates were filtered to dryness and the amount of incorporated ^14C-glucose determined by using a Topcount scintillation counter according to manufacturer's recommendations.
Wells with vehicle controls (0.1% (v/v) DMSO in KRBH buffer) were included as reference for non-inhibited glycogen synthesis (100% CTL). Wells without added D-[U^14C] glucose were included as controls for non-specific background signal (subtracted from all values). Endogenous glucagon peptide was used as a positive control.
All treatments were performed at least in triplicates.
Parameters calculated to describe the both the potency as well as the agonistic activity of each test compound on the endogenous glucagon receptor are pEC50 and % CTL. % CTL is determined by calculating the percentage of CPM/well in the presence of the test compound compared to the CPM/well of the vehicle control after subtracting the background CPM/well: [CPM/well(basal)−CPM/well(sample)]*100/[CPM/well(basal)−CPM/well(control)]
An activator of the glucagon receptor will result in an inhibition of the glycogen synthesis rate and will give % CTL values between 0% CTL (complete inhibition) and 100% CTL (no observable inhibition).
The resulting activity curves were plotted as absolute counts (unit: cpm/sample) over log (test compound concentration) and analyzed using the curve fitting program XLfit.
pEC50 (negative logarithmic value of EC50) reflects the potency of the test compound.
The terms EC50 and pEC50 quoted in relation to GLP-1R activation could equally be regarded as IC50 and pIC50 in relation to glycogen synthesis.

T4 sequence (P30082 27-485): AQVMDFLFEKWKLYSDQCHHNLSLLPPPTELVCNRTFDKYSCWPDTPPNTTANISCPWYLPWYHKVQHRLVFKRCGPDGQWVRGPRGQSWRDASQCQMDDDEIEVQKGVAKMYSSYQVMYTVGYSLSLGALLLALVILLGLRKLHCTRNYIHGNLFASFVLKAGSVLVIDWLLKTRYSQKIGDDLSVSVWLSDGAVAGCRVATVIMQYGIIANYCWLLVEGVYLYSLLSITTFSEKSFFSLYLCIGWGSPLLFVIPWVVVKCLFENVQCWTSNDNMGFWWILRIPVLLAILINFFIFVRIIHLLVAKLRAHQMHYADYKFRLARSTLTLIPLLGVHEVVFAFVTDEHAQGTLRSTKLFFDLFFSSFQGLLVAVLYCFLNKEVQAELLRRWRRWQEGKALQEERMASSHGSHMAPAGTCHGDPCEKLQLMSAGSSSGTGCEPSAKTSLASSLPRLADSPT
T1 sequence (P47871 26-477): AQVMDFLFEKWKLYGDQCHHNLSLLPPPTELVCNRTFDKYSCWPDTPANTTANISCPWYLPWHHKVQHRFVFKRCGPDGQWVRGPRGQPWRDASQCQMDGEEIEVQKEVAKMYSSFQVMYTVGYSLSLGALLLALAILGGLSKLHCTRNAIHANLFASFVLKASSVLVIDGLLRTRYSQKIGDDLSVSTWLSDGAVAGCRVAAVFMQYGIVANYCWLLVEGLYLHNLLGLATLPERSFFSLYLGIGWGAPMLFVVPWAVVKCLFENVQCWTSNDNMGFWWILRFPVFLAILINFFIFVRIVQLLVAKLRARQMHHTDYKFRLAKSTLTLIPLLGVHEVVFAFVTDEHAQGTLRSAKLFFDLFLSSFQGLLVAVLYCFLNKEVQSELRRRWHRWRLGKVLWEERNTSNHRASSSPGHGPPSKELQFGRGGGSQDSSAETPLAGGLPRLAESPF
T2 sequence (P43220 24-463): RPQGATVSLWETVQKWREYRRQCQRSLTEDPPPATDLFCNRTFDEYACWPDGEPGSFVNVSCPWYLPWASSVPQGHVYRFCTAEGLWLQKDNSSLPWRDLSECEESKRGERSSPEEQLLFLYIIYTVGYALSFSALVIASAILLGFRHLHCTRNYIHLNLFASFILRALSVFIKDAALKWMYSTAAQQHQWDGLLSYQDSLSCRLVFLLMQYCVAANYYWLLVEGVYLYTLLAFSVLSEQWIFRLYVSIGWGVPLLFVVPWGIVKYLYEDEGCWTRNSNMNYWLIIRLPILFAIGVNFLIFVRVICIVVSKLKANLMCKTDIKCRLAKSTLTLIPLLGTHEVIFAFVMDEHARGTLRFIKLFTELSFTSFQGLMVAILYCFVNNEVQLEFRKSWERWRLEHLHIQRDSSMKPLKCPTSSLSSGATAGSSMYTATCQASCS

Row | SMILES | EC50 [1] | Ratio GLP-1/Glucagon [2] | EC50 [2] | EC50 [3] | EC50 [4]
1 | CCCCCCCCCCCCCCCC(=O)N[C@@H](CCC(=O)NCCCC[C@H](NC(=O)[C@H](CCC(=O)O)NC(=O)[C@H](CC(=O)O)NC(=O)[C@H](CC(C)C)NC(=O)[C@H](Cc1ccc(O)cc1)NC(=O)[C@H](CCCCN)NC(=O)[C@H](CO)NC(=O)[C@H](Cc1ccc(O)cc1)NC(=O)[C@H](CC(=O)O)NC(=O)[C@H](CO)NC(=O)[C@@H](NC(=O)[C@H](Cc1ccccc1)NC(=O)[C@@H](NC(=O)CNC(=O)[C@H](CCC(N)=O)NC(=O)[C@@H](CO)NC(=O)[C@@H](N)Cc1c[nH]cn1)[C@@H](C)O)[C@@H](C)O)C(=O)N[C@@H](C)C(=O)N[C@@H](C)C(=O)N[C@@H](CCCCN)C(=O)N[C@@H](CC(=O)O)C(=O)N[C@@H](Cc1ccccc1)C(=O)N[C@H](C(=O)N[C@@H](CCC(=O)O)C(=O)N[C@@H](Cc1c[nH]c2ccccc12)C(=O)N[C@@H](CC(C)C)C(=O)N[C@@H](CCC(=O)O)C(=O)N[C@@H](CO)C(=O)N[C@@H](C)C(N)=O)[C@@H](C)CC)C(=O)O [Compound 25, H-H-DSer-QGTFTSDYSKYLDE-K(Hexadecanoyl-isoGlu)-AAKDFIEWLESA-NH2] | 160 pM | 1.94 | 310 pM | 410 pM | 150 pM
2 | CCCCCCCCCCCCCCCC(=O)N[C@@H](CCC(=O)NCCCC[C@H](NC(=O)[C@H](CO)NC(=O)[C@H](CCC(=O)O)NC(=O)[C@H](CC(C)C)NC(=O)[C@H](Cc1ccc(O)cc1)NC(=O)[C@H](CCCCN)NC(=O)[C@H](CO)NC(=O)[C@H](Cc1ccc(O)cc1)NC(=O)[C@H](CC(=O)O)NC(=O)[C@H](CO)NC(=O)[C@@H](NC(=O)[C@H](Cc1ccccc1)NC(=O)[C@@H](NC(=O)CNC(=O)[C@H](CCC(N)=O)NC(=O)C(C)(C)NC(=O)[C@@H](N)Cc1c[nH]cn1)[C@@H](C)O)[C@@H](C)O)C(=O)N[C@@H](C)C(=O)N[C@@H](C)C(=O)N[C@@H](CCC(=O)O)C(=O)N[C@@H](CC(=O)O)C(=O)N[C@@H](Cc1ccccc1)C(=O)N[C@H](C(=O)N[C@@H](CCC(=O)O)C(=O)N[C@@H](Cc1c[nH]c2ccccc12)C(=O)N[C@@H](CC(C)C)C(=O)N[C@@H](CCC(=O)O)C(=O)N[C@@H](CO)C(=O)N[C@@H](C)C(N)=O)C(C)C)C(=O)O [Compound 24, H-H-Aib-QGTFTSDYSKYLES-K(Hexadecanoyl-isoGlu)-AAEDFVEWLESA-NH2] (H-H[Aib]QGTFTSDYSKYLESK([γGlu-Palmitoyl])AAEDFVEWLESA-NH2) | 920 pM | 0.12 | 110 pM | 330 pM | 6150 pM
3 | CCCCCCCCCCCCCCCC(=O)N[C@@H](CCC(=O)NCCCC[C@H](NC(=O)[C@H](CCC(=O)O)NC(=O)[C@H](CCC(=O)O)NC(=O)[C@H](CC(C)C)NC(=O)[C@H](Cc1ccc(O)cc1)NC(=O)[C@H](CCCCN)NC(=O)[C@H](CO)NC(=O)[C@H](Cc1ccc(O)cc1)NC(=O)[C@H](CC(=O)O)NC(=O)[C@H](CO)NC(=O)[C@@H](NC(=O)[C@H](Cc1ccccc1)NC(=O)[C@@H](NC(=O)CNC(=O)[C@H](Cc1c[nH]cn1)NC(=O)C(C)(C)NC(=O)[C@@H](N)Cc1c[nH]cn1)[C@@H](C)O)[C@@H](C)O)C(=O)N[C@@H](C)C(=O)N[C@@H](C)C(=O)N[C@@H](Cc1c[nH]cn1)C(=O)N[C@@H](CCC(=O)O)C(=O)N[C@@H](Cc1ccccc1)C(=O)N[C@H](C(=O)N[C@@H](CCC(=O)O)C(=O)N[C@@H](Cc1c[nH]c2ccccc12)C(=O)N[C@@H](CC(C)C)C(=O)N[C@@H](CCC(=O)O)C(=O)N[C@@H](CO)C(=O)N[C@@H](C)C(N)=O)C(C)C)C(=O)O [Compound 19, H-H-Aib-HGTFTSDYSKYLEE-K(Hexadecanoyl-isoGlu)-AAHEFVEWLESA-NH2] (H-H[Aib]HGTFTSDYSKYLEEK([γGlu-Palmitoyl])AAHEFVEWLESA-NH2) | 80 pM | 3.38 | 270 pM | 330 pM | 60 pM
